Article PMC5046105, “Improved affinity at the cost of decreased specificity: a recurring theme in PDZ-peptide interactions” (Scientific Reports, 2016)
Residue numbers refer to the chain shown, from its start. Ends that are not written are not given here.

Tests used:
[1] = molecular target: T1, pWT PDZ2 (pseudo wild type SAP97 PDZ2, I342W/C378A) (Homo sapiens, UniProt Q12959, C378A/I342W); assay: Stopped-flow binding kinetics, peptide with pWT PDZ2; conditions: for Kd: Kd = koff/kon, ± propagated standard error; for Kd / koff: pH 7.5, 10 °C; for kon: Trp342 fluorescence, 1 µM PDZ, peptide 2–40 µM, N-acetylated peptide, 50 mM potassium phosphate pH 7.5, 10 °C; for kon / koff: value ± standard error; for koff: displacement of pre-formed complex (1 µM PDZ, 2 µM peptide) with 100 and 150 µM dansylated RRRETQV peptide
T1 construct: constituting SAP97 residues 311–407 and the mutations I342W and C372A; His-tagged lipoyl protein domain (N, cleaved yes); made in house
T1 sequence (Q12959 311-407 I342W/C378A): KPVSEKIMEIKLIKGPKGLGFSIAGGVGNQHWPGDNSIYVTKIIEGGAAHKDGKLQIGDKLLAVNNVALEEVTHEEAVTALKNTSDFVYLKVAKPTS
Protocol: (§1) The basic experimental parameters determined were the rate constants of association (kon) and dissociation (koff) for each peptide and for all PDZ variants, respectively, in a procedure described in Fig. 2 for the interaction between PDZØ9 and the EKKHTLL peptide as an example.
(§2) Figure 2 Determination of the two rate constants kon and koff for PDZØ9 binding to the EKKHTLL peptide. kon and koff were determined in separate experiments using stopped-flow spectroscopy and monitoring the change in Trp fluorescence upon binding. (a) The experimental trace was obtained by averaging of three individual experiments in which 11 μM of the EKKHTLL peptide was mixed with 1 μM PDZØ9. The trace was fitted to a single exponential function to obtain the observed rate constant, kobs. […] (c) In a displacement reaction a pre-formed complex between PDZØ9 (1 μM) and the EKKHTLL peptide (2 μM) was mixed with a large excess of dansyl-labeled peptide corresponding to the C-terminal […] of HPV18 E6 (150 μM). […] At high concentrations of dansylated peptide, none of the dissociated EKKHTLL will re-bind, and fitting to a single exponential function returns a kobs value which is equal to the dissociation rate constant, koff, of the pre-formed complex.
(§3) All of the stopped-flow experiments conducted in order to measure the rate constants for the peptide/PDZ interactions, were performed on an SX-20 MV stopped-flow spectrometer (Applied Photophysics Leatherhead, UK) at 10 °C in 50 mM potassium phosphate buffer, pH 7.5. Fluorescence was monitored using the change in emission of Trp342 in the PDZ variants (excitation at 280 nm; emission at 330 ± 30 nm). The peptides were N-acetylated (Ontores Biotechnologies) and the concentration of the respective stock solution was determined with either absorbance, quantitative amino acid analysis or direct detect (EMD Millipore). The rate constants of association, kon, and dissociation, koff, were determined in separate experiments. […] For each PDZ variant the kobs values were plotted versus the concentration of peptide and fitted to the general equation for a reversible bimolecular interaction[38][39] from which kon was derived. The koff was measured in a displacement experiment in which a pre-formed complex of PDZ variant (1 μM) and peptide (2 μM) was mixed with high concentrations of a dansylated RRRETQV-peptide (100, and 150 μM), which competes with the unlabelled peptide for binding to the PDZ. […] The kobs value at high peptide concentration is equal to the overall koff value, as described previously.

[2] = molecular target: T2, PDZØ9 (pWT SAP97 PDZ2 L391F/K392M) (Homo sapiens, UniProt Q12959, C378A/I342W/K392M/L391F); assay: Stopped-flow binding kinetics, peptide with PDZØ9; conditions: stopped-flow; for Kd: Kd = koff/kon, ± propagated standard error; for Kd / koff: pH 7.5, 10 °C; for koff: displacement of pre-formed complex (1 µM PDZ, 2 µM peptide) with 100 and 150 µM dansylated RRRETQV peptide; for koff / kon: value ± standard error; for kon: Trp342 fluorescence, 1 µM PDZ, peptide 2–40 µM, N-acetylated peptide, 50 mM potassium phosphate pH 7.5, 10 °C
T2 construct: constituting SAP97 residues 311–407 and the mutations I342W and C372A; His-tagged lipoyl protein domain (N, cleaved yes); made in house
T2 sequence (Q12959 311-407 I342W/C378A/L391F/K392M): T1 sequence (Q12959 311-407 I342W/C378A) with L81F, K82M
Protocol: as §1, §2, §3

[3] = molecular target: T3, pWT PDZ2 L391F (Homo sapiens, UniProt Q12959, C378A/I342W/L391F); assay: Stopped-flow binding kinetics, peptide with pWT PDZ2 L391F; conditions: for Kd: Kd = koff/kon, ± propagated standard error; for Kd / koff: pH 7.5, 10 °C; for kon: Trp342 fluorescence, 1 µM PDZ, peptide 2–40 µM, N-acetylated peptide, 50 mM potassium phosphate pH 7.5, 10 °C; for kon / koff: value ± standard error; for koff: displacement of pre-formed complex (1 µM PDZ, 2 µM peptide) with 100 and 150 µM dansylated RRRETQV peptide
T3 construct: constituting SAP97 residues 311–407 and the mutations I342W and C372A; His-tagged lipoyl protein domain (N, cleaved yes); made in house
T3 sequence (Q12959 311-407 I342W/C378A/L391F): T1 sequence (Q12959 311-407 I342W/C378A) with L81F
Protocol: as §1, §2, §3

[4] = molecular target: T4, pWT PDZ2 K392M (Homo sapiens, UniProt Q12959, C378A/I342W/K392M); assay: Stopped-flow binding kinetics, peptide with pWT PDZ2 K392M; conditions: for Kd: Kd = koff/kon, ± propagated standard error; for Kd / koff: pH 7.5, 10 °C; for kon: Trp342 fluorescence, 1 µM PDZ, peptide 2–40 µM, N-acetylated peptide, 50 mM potassium phosphate pH 7.5, 10 °C, value ± standard error (EKKHTLL: mean of two experiments); for koff: displacement of pre-formed complex (1 µM PDZ, 2 µM peptide) with 100 and 150 µM dansylated RRRETQV peptide, value ± standard error
T4 construct: constituting SAP97 residues 311–407 and the mutations I342W and C372A; His-tagged lipoyl protein domain (N, cleaved yes); made in house
T4 sequence (Q12959 311-407 I342W/C378A/K392M): T1 sequence (Q12959 311-407 I342W/C378A) with K82M
Protocol: as §1, §2, §3

Substance	Kd [1]	kon [1]	koff [1]	Kd [2]	koff [2]	kon [2]	Kd [3]	kon [3]	koff [3]	Kd [4]	kon [4]	koff [4]
Ac-EKKHTLL [EKKHTLL]	9300 ± 400 nM	1.2e+07 ± 500000 M⁻¹ s⁻¹	112 ± 1.2 s⁻¹	560 ± 5 nM	7.9 ± 0.04 s⁻¹	1.4e+07 ± 100000 M⁻¹ s⁻¹	650 ± 7 nM	1.1e+07 ± 80000 M⁻¹ s⁻¹	7.1 ± 0.05 s⁻¹	14000 ± 2000 nM	1.1e+07 ± 1.7e+06 M⁻¹ s⁻¹	157 ± 2 s⁻¹
Ac-KRKETLV [KRKETLV]	470 ± 6 nM	6.4e+06 ± 60000 M⁻¹ s⁻¹	3 ± 0.03 s⁻¹	80 ± 1 nM	0.6 ± 0.005 s⁻¹	8e+06 ± 60000 M⁻¹ s⁻¹	80 ± 1 nM	7.4e+06 ± 60000 M⁻¹ s⁻¹	0.6 ± 0.005 s⁻¹	470 ± 2 nM	7.2e+06 ± 20000 M⁻¹ s⁻¹	3.4 ± 0.01 s⁻¹
Ac-NSKETVV [NSKETVV]	660 ± 7 nM	1.3e+07 ± 100000 M⁻¹ s⁻¹	8.6 ± 0.07 s⁻¹	160 ± 2 nM	1.6 ± 0.01 s⁻¹	1e+07 ± 70000 M⁻¹ s⁻¹	150 ± 1 nM	1.3e+07 ± 90000 M⁻¹ s⁻¹	1.9 ± 0.01 s⁻¹	790 ± 10 nM	9.7e+06 ± 70000 M⁻¹ s⁻¹	7.7 ± 0.18 s⁻¹
Ac-PGKETQL [PGKETQL]	2800 ± 100 nM	1.8e+07 ± 600000 M⁻¹ s⁻¹	51 ± 1.8 s⁻¹	240 ± 4 nM	3.9 ± 0.03 s⁻¹	1.6e+07 ± 200000 M⁻¹ s⁻¹	250 ± 4 nM	2e+07 ± 300000 M⁻¹ s⁻¹	5 ± 0.02 s⁻¹	2700 ± 200 nM	1.8e+07 ± 600000 M⁻¹ s⁻¹	48 ± 2.3 s⁻¹
Ac-RRRETQV [RRRETQV, reference compound]	400 ± 5 nM	8e+06 ± 40000 M⁻¹ s⁻¹	3.2 ± 0.04 s⁻¹	60 ± 2 nM	0.6 ± 0.015 s⁻¹	9.8e+06 ± 50000 M⁻¹ s⁻¹	70 ± 1 nM	8.7e+06 ± 40000 M⁻¹ s⁻¹	0.6 ± 0.01 s⁻¹	370 ± 3 nM	9e+06 ± 40000 M⁻¹ s⁻¹	3.3 ± 0.02 s⁻¹
Ac-RSISTDV [RSISTDV]	1200 ± 30 nM	2.1e+07 ± 500000 M⁻¹ s⁻¹	26 ± 0.3 s⁻¹	250 ± 5 nM	4.3 ± 0.06 s⁻¹	1.7e+07 ± 200000 M⁻¹ s⁻¹	180 ± 3 nM	2.4e+07 ± 300000 M⁻¹ s⁻¹	4.3 ± 0.05 s⁻¹	1800 ± 40 nM	1.7e+07 ± 300000 M⁻¹ s⁻¹	31 ± 0.3 s⁻¹
Ac-SARSTDV [SARSTDV]	1600 ± 30 nM	1.6e+07 ± 200000 M⁻¹ s⁻¹	26 ± 0.3 s⁻¹	260 ± 5 nM	3.4 ± 0.06 s⁻¹	1.3e+07 ± 100000 M⁻¹ s⁻¹	220 ± 3 nM	1.8e+07 ± 100000 M⁻¹ s⁻¹	4 ± 0.05 s⁻¹	2100 ± 30 nM	1.2e+07 ± 100000 M⁻¹ s⁻¹	25 ± 0.3 s⁻¹
Ac-TSRETDL [TSRETDL]	2200 ± 70 nM	3.3e+07 ± 1.1e+06 M⁻¹ s⁻¹	71 ± 0.5 s⁻¹	170 ± 4 nM	2.6 ± 0.04 s⁻¹	1.5e+07 ± 200000 M⁻¹ s⁻¹	210 ± 6 nM	1.8e+07 ± 400000 M⁻¹ s⁻¹	3.8 ± 0.06 s⁻¹	4100 ± 200 nM	1.5e+07 ± 500000 M⁻¹ s⁻¹	62 ± 0.9 s⁻¹
Ac-VSKETPL [VSKETPL]	3900 ± 200 nM	4e+07 ± 2.2e+06 M⁻¹ s⁻¹	154 ± 3 s⁻¹	750 ± 20 nM	6.3 ± 0.2 s⁻¹	8.4e+06 ± 60000 M⁻¹ s⁻¹	800 ± 20 nM	1.1e+07 ± 100000 M⁻¹ s⁻¹	8.8 ± 0.2 s⁻¹	6300 ± 600 nM	2.4e+07 ± 2.2e+06 M⁻¹ s⁻¹	150 ± 3 s⁻¹
